{"source": "patent EP0908457B1", "about": "“3-(1,2-benzisothiazol- and isoxazol-5-Y1)-2,4(1H,3H)-pyrimidinedione or thione and 3-(1,2-benzisothiazol- and isoxazol-5-y1)-4(3H)-pyrimidinone or thione herbicidal agents” (BASF AKTIENGESELLSCHAFT, priority 1997, dated 1999)", "key": {"[1]": {"tested_on": "Cyperus iria", "experiment": "Preemergence weed control under flooded paddy conditions, CYPIR (Rice Flatsedge); for herbicidal effect rating, CYPIR: meaning of each grade not given here", "type": "in vivo", "conditions": "flooded paddy; for herbicidal effect rating, CYPIR: rated three to four weeks after treatment; for CYPIR: herbicidal effect rating 0-9, three to four weeks after treatment"}, "[2]": {"tested_on": "Monochoria vaginalis, Presl.", "experiment": "Preemergence weed control under flooded paddy conditions, MOOVA (Monochoria); for herbicidal effect rating, MOOVA: meaning of each grade not given here", "type": "in vivo", "conditions": "flooded paddy; for herbicidal effect rating, MOOVA: rated three to four weeks after treatment; for MOOVA: herbicidal effect rating 0-9, three to four weeks after treatment"}, "[3]": {"tested_on": "Oryza sativa, (L.) Tebonnet", "experiment": "Rice tolerance to post-transplant applications under flooded paddy conditions (Example 187), ORYSAT (Rice, Tebonnet)", "conditions": "for herbicidal effect rating ORYSAT / herbicidal effect rating, ORYSAT (rice tolerance): rated three to four weeks after treatment; for ORYSAT: herbicidal effect rating 0-9, three to four weeks after treatment"}, "[4]": {"tested_on": "Sagittaria pygmaea, L.", "experiment": "Preemergence weed control under flooded paddy conditions, SAGPY (Arrowhead (Pygmaea)); for herbicidal effect rating, SAGPY: meaning of each grade not given here", "type": "in vivo", "conditions": "flooded paddy; for herbicidal effect rating, SAGPY: rated three to four weeks after treatment; for SAGPY: herbicidal effect rating 0-9, three to four weeks after treatment"}, "[5]": {"tested_on": "Cyperus serotinus, Rottb.", "experiment": "Preemergence weed control under flooded paddy conditions, CYPSE (Flatsedge); for herbicidal effect rating, CYPSE: meaning of each grade not given here", "type": "in vivo", "conditions": "for herbicidal effect rating, CYPSE: rated three to four weeks after treatment; for CYPSE: herbicidal effect rating 0-9, three to four weeks after treatment"}, "[6]": {"tested_on": "Echinochloa oryzoides (Ard.) Fritsch.", "experiment": "Preemergence weed control under flooded paddy conditions, ECHORC (Watergrass (Calif.)); for herbicidal effect rating, ECHORC: meaning of each grade not given here", "type": "in vivo", "conditions": "flooded paddy; for herbicidal effect rating, ECHORC: rated three to four weeks after treatment; for ECHORC: herbicidal effect rating 0-9, three to four weeks after treatment"}, "[7]": {"conditions": "Rate 0.0320 kg/ha, preemergence weeds"}, "[8]": {"conditions": "Rate 0.0620 kg/ha, preemergence weeds"}, "[9]": {"conditions": "Rate 0.1250 kg/ha, preemergence weeds"}, "[10]": {"conditions": "Rate 0.2500 kg/ha, preemergence weeds"}, "[11]": {"conditions": "0.0320 kg/ha, preemergence weeds"}, "[12]": {"conditions": "0.0620 kg/ha, preemergence weeds"}, "[13]": {"conditions": "0.1250 kg/ha, preemergence weeds"}, "[14]": {"conditions": "0.2500 kg/ha, preemergence weeds"}}, "data": [{"smiles": "COC(=O)C(C)Oc1cccc(-c2nsc3ccc(-n4c(=O)cc(C(F)(F)F)n(C)c4=O)cc23)c1", "note": "(stereo not shown) [Example 325, Propionic acid, 2-{m-{5-[3,6-dihydro-3-methyl-2,6-dioxo-4-(trifluoromethyl)-1-(2H)-pyrimidinyl]-1,2-benzisothiazol-3-yl}phenoxy}-, methyl ester]", "values": [{"measurement": "herbicidal effect rating, CYPIR", "setting": "[1]; [7]", "value": 8.0}, {"measurement": "herbicidal effect rating, CYPIR", "setting": "[1]; [8]", "value": 8.7}, {"measurement": "herbicidal effect rating, CYPIR", "setting": "[1]; [9]", "value": 9.0}, {"measurement": "herbicidal effect rating, CYPIR", "setting": "[1]; [10]", "value": 9.0}, {"measurement": "herbicidal effect rating, MOOVA", "setting": "[2]; [7]", "value": 8.0}, {"measurement": "herbicidal effect rating, MOOVA", "setting": "[2]; [8]", "value": 9.0}, {"measurement": "herbicidal effect rating, MOOVA", "setting": "[2]; [9]", "value": 9.0}, {"measurement": "herbicidal effect rating, MOOVA", "setting": "[2]; [10]", "value": 9.0}, {"measurement": "herbicidal effect rating ORYSAT", "setting": "[3]; Rate 0.0320 kg/ha", "value": 2.7}, {"measurement": "herbicidal effect rating ORYSAT", "setting": "[3]; Rate 0.0620 kg/ha", "value": 3.0}, {"measurement": "herbicidal effect rating ORYSAT", "setting": "[3]; Rate 0.1250 kg/ha", "value": 3.7}, {"measurement": "herbicidal effect rating ORYSAT", "setting": "[3]; Rate 0.2500 kg/ha", "value": 4.0}, {"measurement": "herbicidal effect rating, SAGPY", "setting": "[4]; [7]", "value": 4.0}, {"measurement": "herbicidal effect rating, SAGPY", "setting": "[4]; [8]", "value": 4.3}, {"measurement": "herbicidal effect rating, SAGPY", "setting": "[4]; [9]", "value": 6.3}, {"measurement": "herbicidal effect rating, SAGPY", "setting": "[4]; [10]", "value": 9.0}, {"measurement": "herbicidal effect rating, CYPSE", "setting": "[5]; [7]", "value": 4.7}, {"measurement": "herbicidal effect rating, CYPSE", "setting": "[5]; [8]", "value": 9.0}, {"measurement": "herbicidal effect rating, CYPSE", "setting": "[5]; [9]", "value": 7.3}, {"measurement": "herbicidal effect rating, CYPSE", "setting": "[5]; [10]", "value": 9.0}, {"measurement": "herbicidal effect rating, ECHORC", "setting": "[6]; [7]", "value": 7.7}, {"measurement": "herbicidal effect rating, ECHORC", "setting": "[6]; [8]", "value": 9.0}, {"measurement": "herbicidal effect rating, ECHORC", "setting": "[6]; [9]", "value": 9.0}, {"measurement": "herbicidal effect rating, ECHORC", "setting": "[6]; [10]", "value": 9.0}]}, {"smiles": "Cc1ccc(OCC(=O)NS(C)(=O)=O)c(-c2noc3cc(F)c(-n4c(=O)cc(C(F)(F)F)n(C)c4=O)cc23)c1", "note": "[Example 428, Acetamide, 2-{{2-{5-[3,6-dihydro-3-methyl-2,6-dioxo-4-(trifluoromethyl)-1(2H)-pyrimidinyl]-6-fluoro-1,2-benzisoxazol-3-yl}-p-tolyl}oxy}-N-(methylsulfonyl)-]", "values": [{"measurement": "CYPIR", "setting": "[1]; [11]", "value": 0.0}, {"measurement": "CYPIR", "setting": "[1]; [12]", "value": 2.0}, {"measurement": "CYPIR", "setting": "[1]; [13]", "value": 4.0}, {"measurement": "CYPIR", "setting": "[1]; [14]", "value": 7.0}, {"measurement": "MOOVA", "setting": "[2]; [11]", "value": 9.0}, {"measurement": "MOOVA", "setting": "[2]; [12]", "value": 9.0}, {"measurement": "MOOVA", "setting": "[2]; [13]", "value": 9.0}, {"measurement": "MOOVA", "setting": "[2]; [14]", "value": 9.0}, {"measurement": "ORYSAT", "setting": "[3]; 0.0320 kg/ha", "value": 0.0}, {"measurement": "ORYSAT", "setting": "[3]; 0.0620 kg/ha", "value": 2.0}, {"measurement": "ORYSAT", "setting": "[3]; 0.1250 kg/ha", "value": 6.0}, {"measurement": "ORYSAT", "setting": "[3]; 0.2500 kg/ha", "value": 6.0}, {"measurement": "SAGPY", "setting": "[4]; [11]", "value": 0.0}, {"measurement": "SAGPY", "setting": "[4]; [12]", "value": 0.0}, {"measurement": "SAGPY", "setting": "[4]; [13]", "value": 2.0}, {"measurement": "SAGPY", "setting": "[4]; [14]", "value": 6.0}, {"measurement": "CYPSE", "setting": "[5]; [11]", "value": 0.0}, {"measurement": "CYPSE", "setting": "[5]; [12]", "value": 0.0}, {"measurement": "ECHORC", "setting": "[6]; [11]", "value": 2.0}, {"measurement": "ECHORC", "setting": "[6]; [12]", "value": 3.0}, {"measurement": "ECHORC", "setting": "[6]; [13]", "value": 6.0}, {"measurement": "ECHORC", "setting": "[6]; [14]", "value": 9.0}]}, {"smiles": "Cn1c(C(F)(F)F)cc(=O)n(-c2ccc3onc(-c4ccccc4)c3c2)c1=O", "note": "[Example 25, 1-Methyl-3-(3-phenyl-1,2-benzisoxazol-5-yl)-6-(trifluoromethyl)-2,4(1H,3H)-pyrimidinedione]", "values": [{"measurement": "herbicidal effect rating, CYPIR", "setting": "[1]; 0.0313 kg/ha, preemergence", "value": 9.0}, {"measurement": "herbicidal effect rating, CYPIR", "setting": "[1]; 0.0625 kg/ha, preemergence", "value": 9.0}, {"measurement": "herbicidal effect rating, CYPIR", "setting": "[1]; 0.1250 kg/ha, preemergence", "value": 9.0}, {"measurement": "herbicidal effect rating, CYPIR", "setting": "[1]; 0.2500 kg/ha, preemergence", "value": 9.0}, {"measurement": "herbicidal effect rating, MOOVA", "setting": "[2]; 0.0313 kg/ha, preemergence", "value": 9.0}, {"measurement": "herbicidal effect rating, MOOVA", "setting": "[2]; 0.0625 kg/ha, preemergence", "value": 9.0}, {"measurement": "herbicidal effect rating, MOOVA", "setting": "[2]; 0.1250 kg/ha, preemergence", "value": 9.0}, {"measurement": "herbicidal effect rating, MOOVA", "setting": "[2]; 0.2500 kg/ha, preemergence", "value": 9.0}, {"measurement": "herbicidal effect rating, ORYSAT (rice tolerance)", "setting": "[3]; 0.0313 kg/ha", "value": 4.0}, {"measurement": "herbicidal effect rating, ORYSAT (rice tolerance)", "setting": "[3]; 0.0625 kg/ha", "value": 6.0}, {"measurement": "herbicidal effect rating, ORYSAT (rice tolerance)", "setting": "[3]; 0.1250 kg/ha", "value": 7.0}, {"measurement": "herbicidal effect rating, ORYSAT (rice tolerance)", "setting": "[3]; 0.2500 kg/ha", "value": 7.0}, {"measurement": "herbicidal effect rating, SAGPY", "setting": "[4]; 0.0313 kg/ha, preemergence", "value": 0.0}, {"measurement": "herbicidal effect rating, SAGPY", "setting": "[4]; 0.0625 kg/ha, preemergence", "value": 0.0}, {"measurement": "herbicidal effect rating, SAGPY", "setting": "[4]; 0.1250 kg/ha, preemergence", "value": 1.0}, {"measurement": "herbicidal effect rating, SAGPY", "setting": "[4]; 0.2500 kg/ha, preemergence", "value": 4.0}, {"measurement": "herbicidal effect rating, CYPSE", "setting": "[5]; 0.0313 kg/ha, preemergence", "value": 0.0}, {"measurement": "herbicidal effect rating, CYPSE", "setting": "[5]; 0.0625 kg/ha, preemergence", "value": 2.0}, {"measurement": "herbicidal effect rating, CYPSE", "setting": "[5]; 0.1250 kg/ha, preemergence", "value": 7.0}, {"measurement": "herbicidal effect rating, CYPSE", "setting": "[5]; 0.2500 kg/ha, preemergence", "value": 8.0}, {"measurement": "herbicidal effect rating, ECHORC", "setting": "[6]; 0.0313 kg/ha, preemergence", "value": 7.0}, {"measurement": "herbicidal effect rating, ECHORC", "setting": "[6]; 0.0625 kg/ha, preemergence", "value": 9.0}, {"measurement": "herbicidal effect rating, ECHORC", "setting": "[6]; 0.1250 kg/ha, preemergence", "value": 9.0}, {"measurement": "herbicidal effect rating, ECHORC", "setting": "[6]; 0.2500 kg/ha, preemergence", "value": 9.0}]}]}
